Test results from patent US4416877A, “Anti-atherosclerotic pharmaceutical compositions containing diphosphonate compounds” (priority 1979, dated 1983).

What was measured:
[1] = Oral LD50 toxicity; type: in vivo
Description: Following the extensive pharmacological screening of these compounds, using over 2000 animals, those showing the most potential were then subjected to toxicity testing for further selection relative to their activity/toxicity risk profiles
By way of LD50 (Lethal Dose 50) the methyl diphosphonates were discovered to have a significant lower degree of toxicity. […] This represents a significant six fold difference in toxicity.

[2] = test system: alpha/beta cholesterol ratio; assay: Comparison of clofibrate, gemfibrozil and fenofibrate to compound 16: alpha/beta cholesterol ratio in normal Wistar rats; type: in vivo; details: 100 mg/kg for 10 days, n = 5
Method: It should be noted that these diphosphonate compounds are different and novel in comparison to the classical hypolipidemic compounds as illustrated in Table V. The diphosphonate ester used for comparison was the only one to increase the alpha/beta cholesterol ratio in control rats.
Each drug was administered at 100 mg/kg for 10 days

[3] = Weight of fat tissue from rats treated for 90 days; type: in vivo, male and female rats
Method: Treating male and female rats with 40, 400 and 800 mg/kg of compound 16 per day for 90 days produced a sustained dose response augmentation in serum high density lipoprotein cholesterol (HDL-C or α-cholesterol) as high as 220% above controls at high dose level (Table VI).

[4] = test system: aorta cholesterol; assay: Aorta cholesterol clearing activity in cholesterol pre-fed rabbits; type: in vivo; details: 4 months; for Aortic Cholesterol Free/Ester Ratio / Aortic Cholesterol, Arch / Aortic Cholesterol, Thoracic / Aortic Cholesterol, Total / Aortic Phospholipids, Arch / Aortic Phospholipids, Thoracic / Aortic Phospholipids, Total: n = 5
[5] = Atheromateous surface involvement and intima thickening of aortas in cholesterol pre-fed rabbits; type: in vivo; details: 4 months
[6] = test system: α/β cholesterol ratio; assay: Lipoprotein changes produced by one dose in a Cynomolgus monkey; type: in vivo; details: for α/β cholesterol ratio: 250 mg/kg p.o.
[7] = test system: blood pressure; assay: Cardiovascular changes (blood pressure, heart rate) produced by one dose in a Cynomolgus monkey; type: in vivo; details: for Blood pressure / Heart Rate: 250 mg/kg p.o.
[8] = test system: lipoprotein cholesterol; assay: Lipoprotein changes in normal Cynomolgus monkeys treated during 60 days; type: in vivo; details: for Total Cholesterol / alpha Cholesterol / alpha/beta Cholesterol Ratio / beta Cholesterol: n = 7
Method: To further test the long term efficacity of compound 16, normal male and female Cynomolgus monkeys were treated during 60 days (Table XIII).
Dose: 25 mg/kg/day for 45 days 50 mg/kg/day for last 15 days

[9] = test system: renin; assay: Renin activity in normal monkeys treated for 60 days; type: in vivo, Cynomolgus monkeys
Description: In order to further elucidate the mechanism of the previously observed hypotensive activity, the renin-angiotensin system was also monitored in these animals at the same time. […] However at this dosage concentration the inhibition appeared to be time dependent.

[10] = test system: plasma lipoproteins; assay: Plasma lipoproteins in Cynomolgus monkeys fed simultaneously a high cholesterol diet during 60 days; type: in vivo; details: for HDL Chol. / α/β Chol. ratio: n = 7
Method: | Dose: 25 mg d.i.d. per day

[11] = test system: lipoproteins; assay: Effect on lipoproteins from 5 treated human patients; type: in vivo; details: for HDL2 Cholesterol / HDL2 Free/Total Cholesterol ratio / HDL3 Cholesterol / HDL3 Free/Total Cholesterol ratio / LDL Cholesterol / LDL Free/Total Cholesterol ratio / VLDL Cholesterol / VLDL Free/Total Cholesterol ratio: n = 5; for HDL2 Free/Total Cholesterol ratio, % change / HDL3 Cholesterol, % change / HDL3 Free/Total Cholesterol ratio, % change / VLDL Free/Total Cholesterol ratio, % change: vs pre-test
Method: Five human patients were treated over several days with either 5 mg/kg or 10 mg/kg of compound 16 (Table XV). […] It is generally recognized that an increase in free cholesterol ratio is indicative of an increased clearing or turnover of the lipoprotein cholesterol (Schwartz, C. C. Biochem. Biophys. Acta 663:143-162, 1981).

[12] = 60 days, 50 mg/kg/day for last 15 days
[13] = 30 days on high cholesterol diet
[14] = 60 days on high cholesterol diet

COP(=O)(OC)OC(c1ccc(Cl)cc1)P(=O)(OC)OC (stereo not drawn) [Compound 16, Dimethyl α(dimethoxyphosphinyl) p-chlorobenzyl phosphate]
LD50 ([1]; in vivo, oral): 3040 mg/kg | difference in toxicity (LD50, compound 16 vs compound 24) ([1]; oral LD50): six fold | alpha/beta Cholesterol Ratio [2]: 9.69 ± 0.76 | decreasing the weight of fat tissue ([3]; 40, 400 and 800 mg/kg): impressive dose response effect in decreasing the weight of fat tissue | Weight of fat tissue ([3]; females, 40 mg/kg, n = 10): 1.33 ± 0.66 g | Weight of fat tissue ([3]; females, 400 mg/kg, n = 5): 0.39 ± 0.24 g | Weight of fat tissue ([3]; females, 800 mg/kg, n = 5): 0.48 ± 0.14 g | Weight of fat tissue ([3]; males, 40 mg/kg, n = 8): 2.49 ± 0.94 g | Weight of fat tissue ([3]; males, 400 mg/kg, n = 5): 1.95 ± 0.52 g | Weight of fat tissue ([3]; males, 800 mg/kg, n = 5): 0.97 ± 0.30 g | Aortic Cholesterol Free/Ester Ratio ([4]; 100 mg/kg/day): 0.5 ± 0.1 | Aortic Cholesterol, Arch ([4]; 100 mg/kg/day): 17.9 ± 2.9 mg/g | Aortic Cholesterol, Thoracic ([4]; 100 mg/kg/day): 10.6 ± 2.8 mg/g | Aortic Cholesterol, Total ([4]; 100 mg/kg/day): 20.8 ± 6.5 mg/Aorta | Aortic Phospholipids, Arch ([4]; 100 mg/kg/day): 4.6 ± 1.4 mg/g | Aortic Phospholipids, Thoracic ([4]; 100 mg/kg/day): 4.5 ± 1.5 mg/g | Aortic Phospholipids, Total ([4]; 100 mg/kg/day): 6.5 ± 1.6 mg/Aorta | Aortic Cholesterol Free/Ester Ratio ([4]; 200 mg/kg/day): 0.4 ± 0.1 | Aortic Cholesterol, Arch ([4]; 200 mg/kg/day): 22.8 ± 3.4 mg/g | Aortic Cholesterol, Thoracic ([4]; 200 mg/kg/day): 11.0 ± 4.2 mg/g | Aortic Cholesterol, Total ([4]; 200 mg/kg/day): 18.3 ± 6.7 mg/Aorta | Aortic Phospholipids, Arch ([4]; 200 mg/kg/day): 5.9 ± 1.3 mg/g | Aortic Phospholipids, Thoracic ([4]; 200 mg/kg/day): 4.9 ± 1.9 mg/g | Aortic Phospholipids, Total ([4]; 200 mg/kg/day): 7.9 ± 1.8 mg/Aorta | pre-established cholesterol deposits, aorta ([4]; cholesterol pre-fed rabbits): effectively decreased the pre-established cholesterol deposits | Arch Intima/Media Ratio ([5]; 100 mg/kg/day, n = 4): 0.79 | Arterial Wall Thickness, Arch Intima ([5]; 100 mg/kg/day, n = 4): 41.82 ± 0.93 Units in Area | Arterial Wall Thickness, Thoracic Intima ([5]; 100 mg/kg/day, n = 4): 7.66 ± 0.12 Units in Area | Surface Involved in Atheromateous Plaques, Arch ([5]; 100 mg/kg/day, n = 4): 88 ± 9% | Surface Involved in Atheromateous Plaques, Thoracic ([5]; 100 mg/kg/day, n = 4): 50 ± 15% | Surface Involved in Atheromateous Plaques, Total Aorta ([5]; 100 mg/kg/day, n = 4): 68 ± 12% | Thoracic Intima/Media Ratio ([5]; 100 mg/kg/day, n = 4): 0.23 | aorta intimal thickening ([5]; cholesterol pre-fed rabbits): decreased aorta intimal thickening | atherosclerosis surface involvement ([5]; cholesterol pre-fed rabbits): decreased atherosclerosis surface involvement | α/β cholesterol ratio ([6]; +1h): 0.71 | α/β cholesterol ratio ([6]; +2h): 0.82 | α/β cholesterol ratio ([6]; +3h): 0.83 | α/β cholesterol ratio ([6]; +5h): 0.89 | α/β cholesterol ratio ([6]; +6h): 0.92 | α/β ratio ([6]; additional administration, 5 days): 0.88 | increase in α/β cholesterol levels ([6]; single oral dose 250 mg/kg, 6 hours): 39% | decrease of blood pressure ([7]; 250 mg/kg oral, six hours period): at least 40% | Blood pressure ([7]; +1h): 65 mmHg | Heart Rate ([7]; +1h): 195 beat/min. | Blood pressure ([7]; +2h): 70 mmHg | Blood pressure ([7]; +3h): 100 mmHg | Heart Rate ([7]; +3h): 195 beat/min. | Blood pressure ([7]; +5h): 95 mmHg | Heart Rate ([7]; +5h): 210 beat/min. | Blood pressure ([7]; +6h): 105 mmHg | Heart Rate ([7]; +6h): 210 beat/min. | Total Cholesterol ([8]; 45 days, 25 mg/kg/day): 99 ± 8 mg/100 ml | alpha Cholesterol ([8]; 45 days, 25 mg/kg/day): 54 ± 5 mg/100 ml | alpha/beta Cholesterol Ratio ([8]; 45 days, 25 mg/kg/day): 1.17 | beta Cholesterol ([8]; 45 days, 25 mg/kg/day): 46 ± 4 mg/100 ml | Total Cholesterol [8, 12]: 85 ± 7 mg/100 ml | alpha Cholesterol [8, 12]: 46 ± 4 mg/100 ml | alpha/beta Cholesterol Ratio [8, 12]: 1.09 | beta Cholesterol [8, 12]: 41 ± 5 mg/100 ml | HDL (α-cholesterol) and α/β ratio ([8]; normal monkeys): augmentation in HDL (α-cholesterol) and a significant increase in α/β ratio | blood urea levels ([8]; normal monkeys, treated vs controls): significantly lower | Renin Activity ([9]; controls 5.9±0.9): 0.3±0.1 ng AI /ml/h | inhibition of renin ([9]; male and female monkeys): highly significant and almost complete inhibition of renin | HDL Chol. [10, 13]: 49 ± 4 mg/100 ml | α/β Chol. ratio [10, 13]: 0.22 ± 0.05 | HDL Chol. [10, 14]: 39 ± 6 mg/100 ml | α/β Chol. ratio [10, 14]: 0.22 ± 0.05 | HDL-C values and α/β ratios ([10]; simultaneous cholesterol feeding, 60 days): increase HDL-C values and the α/β ratios | HDL2 Cholesterol ([11]; 5 mg/kg): 0.82 ± 0.13 mmol/L | HDL2 Free/Total Cholesterol ratio ([11]; 5 mg/kg): 0.231 ± 0.027 | HDL3 Cholesterol ([11]; 5 mg/kg): 0.72 ± 0.09 mmol/L | HDL3 Free/Total Cholesterol ratio ([11]; 5 mg/kg): 0.242 ± 0.018 | LDL Cholesterol ([11]; 5 mg/kg): 3.05 ± 0.26 mmol/L | LDL Free/Total Cholesterol ratio ([11]; 5 mg/kg): 0.304 ± 0.005 | VLDL Cholesterol ([11]; 5 mg/kg): 0.20 ± 0.03 mmol/L | VLDL Free/Total Cholesterol ratio ([11]; 5 mg/kg): 0.472 ± 0.019 | HDL2 Free/Total Cholesterol ratio, % change ([11]; 5 mg/kg): +24% | HDL3 Cholesterol, % change ([11]; 5 mg/kg): +36% | HDL3 Free/Total Cholesterol ratio, % change ([11]; 5 mg/kg): +12% | VLDL Free/Total Cholesterol ratio, % change ([11]; 5 mg/kg): +14% | HDL2 Cholesterol ([11]; 10 mg/kg): 0.87 ± 0.07 mmol/L | HDL2 Free/Total Cholesterol ratio ([11]; 10 mg/kg): 0.221 ± 0.003 | HDL3 Cholesterol ([11]; 10 mg/kg): 0.60 ± 0.02 mmol/L | HDL3 Free/Total Cholesterol ratio ([11]; 10 mg/kg): 0.285 ± 0.044 | LDL Cholesterol ([11]; 10 mg/kg): 2.86 ± 0.23 mmol/L | LDL Free/Total Cholesterol ratio ([11]; 10 mg/kg): 0.303 ± 0.002 | VLDL Cholesterol ([11]; 10 mg/kg): 0.26 ± 0.03 mmol/L | VLDL Free/Total Cholesterol ratio ([11]; 10 mg/kg): 0.519 ± 0.031 | HDL2 Free/Total Cholesterol ratio, % change ([11]; 10 mg/kg): +19% | HDL3 Cholesterol, % change ([11]; 10 mg/kg): +13% | HDL3 Free/Total Cholesterol ratio, % change ([11]; 10 mg/kg): +32% | VLDL Free/Total Cholesterol ratio, % change ([11]; 10 mg/kg): +25% | HDL3-cholesterol ([11]; human patients, 5 or 10 mg/kg): significant increase | free/total cholesterol ratio in isolated lipoprotein fractions ([11]; human patients, 5 or 10 mg/kg): significantly elevated
